Results reported in US20230079687A1, “ALKYLRESORCINOL HOMOLOGUES AS ANTIOXIDANTS” (The Penn State Research Foundation, priority 2021, published 2023).
“Also recorded” adds a separate entry of the source.

Key:
[1] = Formation of headspace hexanal in antioxidant-treated crackers during storage; conditions: for storage day at which headspace hexanal began to increase (end of lag phase) / activity concluded from headspace hexanal formation: 153 μmol antioxidant in crackers; for storage day at which headspace hexanal began to increase (end of lag phase): autoxidized at 55° C. in the absence of light, FIG. 2; for order of induction periods for headspace hexanal: time to reach threshold [Hexanal]=1.0 mM/g cracker, FIG. 3B; for activity concluded from headspace hexanal formation: 55° C., compared to control crackers
Method: (§1) Based on the concentrations of the individual AR stock solutions previously determined, an appropriate volume, containing 153 μmol of the respective individual AR homologue, was measured into plastic centrifuge tubes to prepare individual AR homologue treatments. A treatment containing a mixture of the individual AR homologues, at their natural abundance in rye bran, was prepared by combining 25.3% of C17:0, 32.0% of C19:0, 22.6% of C21:0, 12.5% of C23:0, and 7.6% of C25:0. The same procedure was carried out with 10 mM stock solutions of orcinol, α-tocopherol, and butylated hydroxytoluene (BHT) and all treatments were dried under a stream of nitrogen. Ethanol (1.0 mL) was added to the dried treatments (and a control treatment containing no antioxidant) and mixed with 10 g of melted ISO. The antioxidant activity of each treatment was tested at 153 μmol because this corresponds to 500 ppm of C21:0 in the final cracker which is a typical antioxidant concentration used in bakery applications.
(§2) Antioxidant-treated ISO was melted at 90° C. for 10 minutes and mixed in a stand mixer (KSM95, KitchenAid, Benton Harbor, Mich., U.S.) using a beater blade for 1 minute (speed 2). Sifted flour, salt, and baking soda were added and mixed using a beater blade for 1 minute (speed 2). Water was added and mixed using a dough hook for 1 minute (speed 2). The additional flour was sprinkled onto the surface of a baking mat and incorporated into the dough by kneading by hand (30 folds). The dough was flattened by passing it through a pasta roller (KPSA, KitchenAid, Benton Harbor, Mich., U.S.) twice (thickness setting 2). The sheeted dough was cut into 2.5 cm×2.5 cm crackers and baked on an ungreased baking sheet for 9 minutes at 163° C. (FD 53-UL, Binder, Tuttlingen, Germany). After cooling to room temperature, crackers were coarsely crumbled using a mortar and pestle and weighed (0.5 g) into 10 mL amber glass headspace vials (Supelco Analytical, Bellefonte, Pa., U.S.), sealed with stainless steel screw caps with PTFE/silicone septa (Supelco Analytical, Bellefonte, Pa., U.S.), and allowed to autoxidize at 55° C. in the absence of light for up to 160 days. Crackers were analyzed for lipid hydroperoxides, headspace hexanal, and AR loss every 5 days for day 0-50, every 10 days for day 51-100, and every 20 days for the remainder of the storage time.
Cracker samples were prepared for GC-MS analysis by adding 10 μL of 100 mg/L 2-methypentanal (internal standard) in methanol directly through the capped headspace vial's septum. The GC system consisted of a 7890B gas chromatograph (Agilent, Santa Clara, Calif., U.S.) with sample introduction by means of an autosampler (Robotic MultiPurpose Sampler, Gerstel, Mülheim, Germany). Samples were equilibrated for 10 minutes at 55° C. with continuous shaking. A 50/30 μm divinylbenzene/carboxen/polydimethylsiloxane (DVB/CAR/PDMS) (1 cm) (Supelco Analytical, Bellefonte, Pa., U.S.) solid phase microextraction (SPME) fiber was exposed to the sample headspace for 2 minutes at 55° C. The SPME fiber was desorbed for 6 minutes at 250° C. in the injection port equipped with a SPME inlet liner at a split ratio of 10:1. Volatile aldehydes were separated on a Rtx-WAX capillary column (30 m, 0.25 mm i.d., 0.25 μm film thickness) (Restek, Bellefonte, Pa., U.S.). An oven program was followed to separate the different volatile aldehydes at a constant helium carrier gas flow rate of 1.22 mL/min. The oven program was as follows: hold at 40° C. for 1 minute; ramp at 10° C./min to 75° C.; ramp at 100° C./min to 250° C.; hold at 250° C. for 1.75 minutes. Detection and quantification of hexanal and 2-methylpentanal was achieved using a single quadrupole mass spectrometer (5977B, Agilent, Santa Clara, Calif., U.S.) coupled to the GC. The MS transfer line, quadrupole, and detector temperatures were set to 250° C., 230° C., 150° C., respectively. Mass spectra were collected in electron impact mode.

[2] = Formation of lipid hydroperoxides in antioxidant-treated crackers during storage; conditions: for storage day at which lipid hydroperoxide concentration began to increase (end of lag phase): autoxidized at 55° C. in the absence of light; for storage day at which lipid hydroperoxide concentration began to increase (end of lag phase) / course of lipid hydroperoxide formation after the lag phase (in words): FIG. 1; for order of induction periods for lipid hydroperoxides: time to reach threshold [Hydroperoxides]=0.1 mM/g cracker, FIG. 3A
Method: as §1, §2
Lipid hydroperoxides were determined according to the method described by Shantha & Decker (1994) with slight modifications. Cracker samples (0.1 g) were finely ground using a mortar and pestle and mixed with 5.0 mL chloroform/methanol (2:1 (v/v)) by vortexing (10 seconds, 3 times). The hydroperoxide-containing lipid fraction was extracted and isolated by centrifugation at 2500×g for 10 minutes (Centrifuge 5702, A-4-38 Rotor, Eppendorf, Hamburg, Germany). To this extract (1.0 mL), 16.7 μL of an iron chloride solution (prepared by mixing 50 mL 66 mM FeSO4 in water with 50 mL 38 mM BaCl2 in 0.4 N HCl) was added followed by 16.7 μL of ammonium thiocyanate (3.9 M in water), and allowed to react at room temperature for 20 minutes. The absorbance of the samples was measured at 500 nm (GENESYS 180 UV-Vis Spectrophotometer, Thermo Fisher Scientific, Waltham, Mass., U.S.) and lipid hydroperoxides were quantified based on a standard curve prepared using cumene hydroperoxide.
Individual AR homologues (C17:0, C19:0, C21:0, C23:0, C25:0) were added separately and as a mixture (AR Mix) to ISO and subsequently incorporated into the cracker samples. The antioxidant activities of the AR homologues in crackers were compared to orcinol (a water-soluble AR), conventional antioxidants (i.e., α-tocopherol, BHT), and a control treatment (i.e., no added antioxidant). The crackers were allowed to autoxidize in the absence of light and primary (i.e., lipid hydroperoxides) and secondary products (i.e., headspace hexanal) of lipid oxidation were measured as a function of time.

[3] = Antioxidant activity in the low-moisture model cracker system (overall lipid oxidation study); conditions: 153 μmol antioxidant
Method: Based on the concentrations of the individual AR stock solutions previously determined, an appropriate volume, containing 153 μmol of the respective individual AR homologue, was measured into plastic centrifuge tubes to prepare individual AR homologue treatments. […] The same procedure was carried out with 10 mM stock solutions of orcinol, α-tocopherol, and butylated hydroxytoluene (BHT) and all treatments were dried under a stream of nitrogen. Ethanol (1.0 mL) was added to the dried treatments (and a control treatment containing no antioxidant) and mixed with 10 g of melted ISO. […] Antioxidant-treated ISO was melted at 90° C. for 10 minutes and mixed in a stand mixer (KSM95, KitchenAid, Benton Harbor, Mich., U.S.) using a beater blade for 1 minute (speed 2). […] flour, salt, and baking soda were added and mixed using a beater blade for 1 minute (speed 2). Water was added and mixed using a dough hook for 1 minute (speed 2). The additional flour was sprinkled onto the surface of a baking mat and incorporated into the dough by kneading by hand (30 folds). The dough was flattened by passing it through a pasta roller (KPSA, KitchenAid, Benton Harbor, Mich., U.S.) twice (thickness setting 2). The sheeted dough was cut into 2.5 cm×2.5 cm crackers and baked on an ungreased baking sheet for 9 minutes at 163° C. (FD 53-UL, Binder, Tuttlingen, Germany). […] Individual AR homologues (C17:0, C19:0, C21:0, C23:0, C25:0) were added separately and as a mixture (AR Mix) to ISO and subsequently incorporated into the cracker samples. The antioxidant activities of the AR homologues in crackers were compared to orcinol (a water-soluble AR), conventional antioxidants (i.e., α-tocopherol, BHT), and a control treatment (i.e., no added antioxidant). The crackers were allowed to autoxidize in the absence of light and primary (i.e., lipid hydroperoxides) and secondary products (i.e., headspace hexanal) of lipid oxidation were measured as a function of time.

[4] = literature, same low-moisture model cracker system; cited from earlier work
[5] = oxygen radical absorbance capacity assay, earlier work of the Inventors; cited from earlier work
[6] = 153 μmol antioxidant in crackers
[7] = 153 μmol antioxidant in crackers, 55° C.

| SMILES | storage day at which headspace hexanal began to increase (end of lag phase) [1] | order of induction periods for headspace hexanal [1] | storage day at which lipid hydroperoxide concentration began to increase (end of lag phase) [2, 6] | order of induction periods for lipid hydroperoxides [2] | antioxidant activity in the low-moisture model cracker system (in words) [3] | course of lipid hydroperoxide formation after the lag phase (in words) [2, 7] | antioxidant activity against formation of lipid hydroperoxides and hexanal [4] | activity concluded from headspace hexanal formation [1] | activity concluded from lipid hydroperoxide formation ([2]; 153 μmol antioxidant in crackers, 55° C., compared to control crackers) | radical scavenging capacity [5] |
| --- | --- | --- | --- | --- | --- | --- | --- | --- | --- | --- |
| CCCCCCCCCCCCCCCCCCCc1cc(O)cc(O)c1 [C19:0] | 50 days | C23:0>BHT>C25:0 AR Mix>C21:0>C19:0≈C17:0>control≈orcinol>>α-tocopherol | 25 days | AR Mix≈C23:0>C25:0>(C21:0≈C19:0)>(C19:0≈BHT)>(BHT≈orcinol)>(orcinol≈C17:0)>control>>α-tocopherol | – | – | – | – | – | – |
| CCCCCCCCCCCCCCCCCCCCCCCCCc1cc(O)cc(O)c1 [C25:0] | – | C23:0>BHT>C25:0 AR Mix>C21:0>C19:0≈C17:0>control≈orcinol>>α-tocopherol | – | AR Mix≈C23:0>C25:0>(C21:0≈C19:0)>(C19:0≈BHT)>(BHT≈orcinol)>(orcinol≈C17:0)>control>>α-tocopherol | more effective than BHT | slow, steady increase | – | – | – | – |
| CCCCCCCCCCCCCCCCCCCCOC(=O)C(Cc1ccc(O)c(O)c1)OC(=O)C=Cc1ccc(O)c(O)c1 (stereo not shown) [eicosyl ester] | – | – | – | – | – | – | stronger antioxidant activity than rosmarinic acid and the dodecyl ester | – | – | – |
| CCCCCCCCCCCCCCCCCCCCCCCc1cc(O)cc(O)c1 [C23:0] | still in the lag phase of lipid oxidation at the conclusion of the study | C23:0>BHT>C25:0 AR Mix>C21:0>C19:0≈C17:0>control≈orcinol>>α-tocopherol | – | AR Mix≈C23:0>C25:0>(C21:0≈C19:0)>(C19:0≈BHT)>(BHT≈orcinol)>(orcinol≈C17:0)>control>>α-tocopherol | optimum activity; also recorded: more effective than BHT | slow, steady increase | – | – | – | – |
| Cc1cc(C(C)(C)C)c(O)c(C(C)(C)C)c1 [BHT, butylated hydroxytoluene] | – | C23:0>BHT>C25:0 AR Mix>C21:0>C19:0≈C17:0>control≈orcinol>>α-tocopherol | 25 days | AR Mix≈C23:0>C25:0>(C21:0≈C19:0)>(C19:0≈BHT)>(BHT≈orcinol)>(orcinol≈C17:0)>control>>α-tocopherol | strong antioxidant activity | slow, steady increase | – | – | – | – |
| Cc1c(C)c2c(c(C)c1O)CC[C@@](C)(CCC[C@H](C)CCC[C@H](C)CCCC(C)C)O2 [α-tocopherol] | 5 days | C23:0>BHT>C25:0 AR Mix>C21:0>C19:0≈C17:0>control≈orcinol>>α-tocopherol | immediately upon storage | AR Mix≈C23:0>C25:0>(C21:0≈C19:0)>(C19:0≈BHT)>(BHT≈orcinol)>(orcinol≈C17:0)>control>>α-tocopherol | strong prooxidant activity | – | – | prooxidant behavior | prooxidant activity | – |
| CCCCCCCCCCCCCCCCCCCCCc1cc(O)cc(O)c1 [C21:0] | 70 days | C23:0>BHT>C25:0 AR Mix>C21:0>C19:0≈C17:0>control≈orcinol>>α-tocopherol | 25 days | AR Mix≈C23:0>C25:0>(C21:0≈C19:0)>(C19:0≈BHT)>(BHT≈orcinol)>(orcinol≈C17:0)>control>>α-tocopherol | – | – | – | – | – | – |
| O=C(/C=C/c1ccc(O)c(O)c1)O[C@H](Cc1ccc(O)c(O)c1)C(=O)O [rosmarinic acid] | – | – | – | – | – | – | weak antioxidant and prooxidant activity | – | – | – |
| CCCCCCCCCCCCCCCCCc1cc(O)cc(O)c1 [C17:0] | 45 days | C23:0>BHT>C25:0 AR Mix>C21:0>C19:0≈C17:0>control≈orcinol>>α-tocopherol | 25 days | AR Mix≈C23:0>C25:0>(C21:0≈C19:0)>(C19:0≈BHT)>(BHT≈orcinol)>(orcinol≈C17:0)>control>>α-tocopherol | – | – | – | – | – | – |
| Cc1cc(O)cc(O)c1 [orcinol] | > 35 days | C23:0>BHT>C25:0 AR Mix>C21:0>C19:0≈C17:0>control≈orcinol>>α-tocopherol | 25 days | AR Mix≈C23:0>C25:0>(C21:0≈C19:0)>(C19:0≈BHT)>(BHT≈orcinol)>(orcinol≈C17:0)>control>>α-tocopherol | weak to no antioxidant activity | oxidizing most rapidly | – | neither prooxidant or antioxidant activity | – | strongest antiradical activity |
